# Assay results taken from PubChem BioAssay AID463136 (University of Pittsburgh Molecular Library Screening Center, 2010).
# Inconclusive results are not listed. The source made the active and inactive calls. No rule for the calls is given here.
# Key:
# [1] = blockers of dynein-driven microtubule transport – imaging, high-content imaging, dose response (AID 463136); details: HCS imaging, dynein-mediated cargo transport inhibition; inhibition at max concentration; at 50 µM; stronger effect = higher value;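 also: mouse mammary adenocarcinoma 3617.4 cells expressing GFP-tagged rat glucocorticoid receptor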; as to inhibition: reference of the scale not given here
# [2] = tested on: HCS imaging, dynein-mediated cargo transport inhibition; assay: as above
SMILES,inhibition [1],IC50 [2]
O=C(CCl)N(CCCNC(=O)C(F)(F)F)c1ccc([N+](=O)[O-])cc1,83.1%,10.8 µM
COCc1cc(S(=O)c2ccc(Cl)cc2)nc(C)n1 (configuration not stated),86.5%,15.6 µM
N#C/C(=C\c1cccc([N+](=O)[O-])c1)C(=O)NCc1ccc(Cl)cc1,13.8%,> 50 µM (inactive)
COC(=O)c1ccc(-n2c(C)cc(C(=O)CCl)c2C)cc1,66.8%,21.9 µM
Cc1cc(C(=O)CCl)c(C)n1-c1ccon1,61.3%,11.8 µM
Cc1cc(-n2c(C)cc(C(=O)CCl)c2C)no1,67.7%,9.45 µM
O=[N+]([O-])c1ccc(Sc2nnnn2-c2ccccc2)nc1,81.6%,7.59 µM
COC1=C(C)C(O)=C(C(=O)/C=C/c2ccccc2)C(=O)C1(C)C,88.2%,12.2 µM
CC1C/C(=C/c2ccco2)C(=O)/C(=C/c2ccco2)C1 (configuration not stated),64.1%,39.2 µM
CC1(C)CC(=O)C2=C(C1)OC1=C(C(=O)CC(C)(C)C1)C2c1ccc(O)cc1O,65.8%,22.6 µM
C=C1C(=O)[C@@]23[C@H](O)C[C@@H]4C(C)(C)CC[C@H](O)[C@@]4(C)[C@@H]2CC[C@@H]1[C@H]3O,87.3%,6.12 µM
C=CCn1c(Sc2ncc([N+](=O)[O-])s2)n[nH]c1=O,62.3%,20 µM
CCCSc1cc(NCCOC(=O)CCC)c([N+](=O)[O-])c2nonc12,59.1%,28.4 µM
CCCNC(=O)c1nnsc1S(=O)(=O)c1ccc(Cl)cc1,69.3%,8.66 µM
O=C1NC(=O)N(Cc2ccc(F)cc2)C(=O)/C1=C\C=C\c1ccco1,74.8%,30.9 µM
O=C(/C=C/c1cccnc1)/C=C/c1cccnc1,88.7%,3.09 µM
COc1ccc(/C=C/C(=O)c2c(O)c(OC)c3occc3c2OC)cc1,30.2%,> 50 µM (inactive)
O=C1/C(=C\c2cccnc2)CN(Cc2ccccc2)C/C1=C\c1cccnc1,83.3%,15.5 µM
N#C/C(=C/c1ccc(N2CCCCC2)o1)C(=O)NCCc1c[nH]c2ccccc12,98.8%,31.8 µM
O=C(/C=C/c1cccc([N+](=O)[O-])c1)n1cnc2ccccc21,85.7%,17.3 µM
Cc1cc(C(=O)CCl)c(C)n1Cc1ccco1,85.7%,13.5 µM
COc1ccc(N=C2S/C(=C\c3ccc(N4CCOCC4)o3)C(=O)N2CCc2c[nH]c3ccccc23)cc1,127%,27.1 µM

SMILES,inhibition [1],IC50 [2]
COc1ccc(NC(=O)/C(Cl)=C(/Cl)S(=O)Cc2ccc(C)cc2)cn1 (configuration not stated),54.7%,23.4 µM
N#C/C(=C/c1ccc(N2CCCCCC2)o1)c1ccc(Cl)cc1,23.1%,> 50 µM (inactive)
Cn1c(=O)c(NCCc2ccccc2)c2c3c(cccc31)C(=O)c1ccccc1-2,19%,> 50 µM (inactive)
COC(=O)[C@@]1(Cc2ccccc2)[C@@H]2C(=CC(=O)[C@H]2CC(=O)C(=O)N(C)C)CN1C(=O)c1ccccc1,86.2%,4.67 µM
O=c1[nH]sc2ccccc12,91%,10.9 µM
Cn1ncc(S(=O)(=O)Cc2ccccc2)c(Cl)c1=O,10.6%,> 50 µM (inactive)
C#CC(=O)N(c1ccc(OC)c(OC)c1)C(C(=O)NC1CCCC1)c1cccs1 (configuration not stated),40.2%,> 50 µM (inactive)
Clc1ncnc2scc(-c3ccc(Br)cc3)c12,85.1%,19.9 µM
Nc1cccc2c1C(=O)N(C(=O)/C=C/c1ccc(F)cc1)C2=O,37.6%,> 50 µM (inactive)
CCN1CCN(C2=CC3=CC(=C(C#N)C#N)CCC3CC2)CC1 (configuration not stated),99.2%,30.6 µM
COC/C=C/C1=CC2=CC(=O)C(C)(OC(=O)c3cnc4ccccc4n3)C(=O)C2=CN1Cc1ccc(OC)cc1 (configuration not stated),89.5%,15 µM
N#CC12COC3(CCCCC3C1(C#N)C#N)OC2=N (configuration not stated),8.2%,> 50 µM (inactive)
CCOc1ccc(-n2c(C)cc(C(=O)CCl)c2C)cc1,82.2%,24.9 µM
CC(=O)n1cc(N(C(=O)CCl)c2ccc(C)cc2)c2ccccc21,68.7%,16.8 µM
Cc1nc([N+](=O)[O-])c(Br)n1CC(=O)c1ccc(Cl)cc1,88.1%,13.1 µM
CCOC(=O)C(=Cc1c[nH]c2ccc(S(=O)(=O)N(C)C)cc12)C(=O)OCC,92.8%,29.5 µM
COc1ccc(CCn2c(C)cc(C(=O)CCl)c2C)cc1OC,82.1%,9.84 µM
O=C(NC1CCCCC1)C(c1cccnc1)N(C(=O)CCl)c1ccc(F)cc1 (configuration not stated),82.2%,12.7 µM
Cc1ccc(C(=O)Oc2oc(-c3ccco3)nc2C=Nc2ccc(Cl)cc2)cc1,65.2%,46.3 µM
N/C(=C\C(=O)c1cc(Cl)ccc1O)C(Cl)(Cl)Cl,76.1%,33 µM
N#Cc1cccc(N=c2ssnc2Cl)c1,14.7%,> 50 µM (inactive)
O=C(CCl)N(C/C=C/c1ccccc1)c1ccc2c(c1)OCCO2,78.1%,27.1 µM

SMILES,inhibition [1],IC50 [2]
Cc1ccccc1NC(=O)COC(=O)c1ccc(S(C)(=O)=O)c([N+](=O)[O-])c1,81.2%,31.8 µM
CCCCN(C)C1=CC2=CC(=C(C#N)C#N)CCC2CC1 (configuration not stated),99.2%,13.6 µM
Cc1cc(C)c(C)c(S(=O)(=O)ON2C(=O)c3ccccc3C2=O)c1C,-3.7%,> 50 µM (inactive)
COc1ccc(-c2csc3nc(-c4cccnc4)nc(Cl)c23)cc1OC,84.4%,27.5 µM
CCN1/C(=C/C=C/c2oc3ccc4ccccc4c3[n+]2CC)Oc2ccc3ccccc3c21,96.7%,2.51 µM
CC(C)CN1C(=O)/C(=C/c2c(N3CCc4ccccc4C3)nc3ccccn3c2=O)SC1=S,131%,26 µM
COc1ccc(N2C(=O)CC(Sc3ncn[nH]3)C2=O)c(OC)c1 (configuration not stated),5.17%,> 50 µM (inactive)
COC(=O)c1cc(=O)n(Cc2cccs2)c(=Nc2ccccc2)s1,32.2%,> 50 µM (inactive)
Cc1cc(C)nc(S/C=C/C(=O)c2ccccc2F)n1,83.3%,19.3 µM
CC(=O)OCCN(C)c1cc(SC(C)C)c2nonc2c1[N+](=O)[O-],68.1%,35.5 µM
CC(C)N1C/C(=C/c2cccnc2)C(=O)/C(=C/c2cccnc2)C1,83%,8.41 µM
CC(C)c1ccc(CN2CCN(C(=O)CCl)CC2)cc1,89.6%,7.94 µM
CCOc1ccc(CN(C)C(=O)CCl)cc1,85.8%,10.2 µM
CCCCCCN(C(=O)CCl)c1ccccc1,80.3%,17.2 µM
COC(C/C=C/C(=O)COCc1ccccc1)OC,69.3%,8.5 µM
O=c1c(Cl)cc(Cl)nn1-c1ccccc1,72.4%,10.5 µM
CCc1ccc(N2C(=O)NC(=O)/C(=C\C=C\c3ccco3)C2=O)cc1,165%,27.5 µM
Cc1ccc(N2C(=N)/C(=C3/Nc4ccccc4S3)C(c3ccccc3)C2=O)cc1 (configuration not stated),81.8%,23.2 µM
O=C(OCCN1C(=O)c2cccc3c(N4CCOCC4)ccc(c23)C1=O)c1ccc(Cl)cc1Cl,2.73%,> 50 µM (inactive)
O=C(/C=C/c1ccccc1Cl)c1cccnc1,85.3%,17.2 µM
N#C/C(=C/c1ccc(N2CCCCC2)o1)C(=O)Nc1ccc(Cl)cc1,97.4%,40.4 µM
N#Cc1cccc(NC(=O)CSc2ccc3c4c(cccc24)C(=O)c2ccccc2-3)c1,104%,33.3 µM

SMILES,inhibition [1],IC50 [2]
COC(=O)CS(=O)(=O)c1nnc([C@H](Cc2ccccc2)NC(=O)OC(C)(C)C)o1,34.1%,> 50 µM (inactive)
Cc1cccc2cc3c(N)c(C(=O)N4CCCc5ccccc54)sc3nc12,116%,35.2 µM
CCNc1ccc(Br)cc(C(=O)/C=C/c2ccc(Cl)cc2Cl)c1=O,99.2%,32.9 µM
O=C(CCl)Nc1cccc(Oc2ccccc2)c1,56.5%,38.8 µM
O=C(c1ccccc1)c1cc(Cl)ccc1N1C(=O)C=CC1=O,12%,> 50 µM (inactive)
BrC(=C\c1ccccc1)/C=N/n1cnnc1,90.7%,18.4 µM
O=C1C(Cl)=C(NCCN2CCCCC2)C(=O)c2ccccc21,63.5%,31.8 µM
O=C(CCl)N1N=C(c2cccs2)CC1c1ccco1 (configuration not stated),47.6%,> 50 µM (inactive)
CCN1C/C(=C/c2ccc(N3CCOCC3)cc2)C(=O)/C(=C/c2ccc(N3CCOCC3)cc2)C1,108%,25 µM
O=c1c(Cl)c(Cl)cnn1Cc1ccccc1Cl,51.4%,23.8 µM
COc1ccc(-n2nc(C#N)c(Cl)cc2=O)cc1,65.4%,8.09 µM
CN(C)CCCN(C(=O)CCOc1ccccc1)c1nc2c(F)cccc2s1,30.5%,> 50 µM (inactive)
O=C(CCl)Nc1cc(-c2ccccc2)nn1-c1ccccc1,81.4%,11.8 µM
COc1cccc(-n2nc(C#N)c(Cl)cc2=O)c1,48.5%,11.2 µM
C=C1C(=O)C=C2CN(C(=O)c3ccccc3)[C@@](Cc3ccc(F)cc3)(C(=O)OC)[C@@H]12,80.3%,4 µM
O=C(/C=C/Sc1ccccc1)c1ccccc1,76.9%,30.3 µM
Cc1ccnc(N/C=C(\C#N)c2nc(-c3cccc(Br)c3)cs2)c1,102%,8.77 µM
C=CS(=O)(=O)c1sc(Cl)c(N2CCOCC2)c1[N+](=O)[O-],10.2%,> 50 µM (inactive)
O=C(OCn1ncc(Br)c(Br)c1=O)c1c(F)cccc1F,81.6%,18.5 µM
COCCCn1c(O)c(/C=C2\N=C(C#N)C(=Nc3ccc(C)cc3)O2)sc1=S,11%,> 50 µM (inactive)
